Experimental data reported in PMC10574351, “First-Row Transition Metal Complexes Incorporating the 2-(2′-pyridyl)quinoxaline Ligand (pqx), as Potent Inflammatory Mediators: Cytotoxic Properties and Biological Activities against the Platelet-Activating Factor (PAF) and Thrombin” (Molecules, 2023).

Columns and labels:
[1] = tested on: HeLa cells (cervical cancer cells); test: MTT cell viability assay, HeLa; type: cell-based, human; settings: for IC50: 48 h exposure, mean ± SD; for cytotoxic effect in HeLa: 48 h, concentrations up to 100 μΜ
Protocol: In this report, cell viability tests were conducted in HEK293T and HeLa cancer cells by means of the colorimetric 3-(4,5-dimethylthiazol-2-yl)-2,5-diphenyl tetrazolium bromide (MTT) assay after exposure for 48 h. A HeLa cancer cell line was selected since it is widely used in cytotoxicity studies. For all complexes, a 10 mM stock solution in DMSO (H2O for cisplatin) was prepared and diluted appropriately to reach the final concentration reported in the Materials and Methods. The non-cancerous HEK293T cell line was used for comparison. The IC50 values of the first-row metal complexes, the pqx ligand and cisplatin, presented herein were calculated using a dose-response model, which was obtained from sigmoidal fitting of dose-response curves.
The HEK293T cell line (immortalized human embryonic kidney cells) was obtained from the Biomedical Research Foundation Academy of Athens (BRFAA), Athens, Greece and the HeLa cell line (cervical cancer cells) was obtained from the National Centre For Scientific Research Demokritos (NCSR Demokritos), Athens, Greece.
Pqx metal complexes were diluted in stock solutions of 10 mM in dimethyl sulfoxide (DMSO). A similar concentration of cisplatin dissolved in H2O was used. HEK293T and HeLa cells were cultured in Dulbecco’s modified Eagle’s medium (DMEM) with high glucose (Biosera, Nuaille, France) supplemented with 10% fetal bovine serum at 37 °C and 5% CO2. Cells were seeded in sterile tissue culture 96-well plates (SPL Life Science, Pochon, Republic of Korea) at a density of 3000 cells per well. After 24 h, the medium was removed and replaced with fresh media containing various concentrations (0.01 μΜ, 0.1 μΜ, 1 μΜ, 10 μΜ, 25 μΜ, 40 μΜ, 55 μΜ, 70 μΜ, 85 μΜ and 100 μΜ) of the compounds to be tested and was further incubated for 48 h at 37 °C. Dimethyl sulfoxide (DMSO) was used as a vehicle at ≤1%. To measure cytotoxicity, a culture medium containing the compounds (or DMSO) was removed, and 100 μL of 0.5 mg/mL MTT reagent (Applichem, Darmstadt, Germany) diluted in DMEM was added to the cells for 3 h at 37 °C. After 3 h incubation in identical conditions, MTT was removed and 200 μL of DMSO was added. Absorbance values of formazan were measured at 540 nm using a BioTek Synergy H1 microplate reader (Agilent, Santa Clara, CA, USA). All compounds were tested in triplicate. The results were statistically analyzed using the nonlinear regression by GraphPad PRISM (Version 9).

[2] = tested on: PAF-induced aggregation in washed rabbit platelets (WRPs); test: Inhibition of PAF-induced aggregation in washed rabbit platelets; type: cell-based; settings: for IC50: washed rabbit platelets, mean ± SD, read-out: IC50 (μM) towards PAF in WRPs
Protocol: The biological experiments of PAF-induced platelet aggregation as well as the evaluation of the inhibitory effect of its synthetic compounds were performed according to thoroughly described protocols. […] Briefly, in order to obtain the washed rabbit platelets (WRPs), platelet-rich plasma was washed on Ficoll–Paque cushions and adjusted to […] platelets/mL of Tyrode’s buffer, pH 7.2. The dilution of PAF was prepared using pyrogen-free 0.15 M NaCl containing 2.5 mg/mL of crystallized bovine serum albumin, required for dispersion of PAF. The compounds under investigation were firstly dissolved in the appropriate solvent that is: DMSO for pqx (0.010 M), H2O for CrCl3 × 3H2O (0.016 M), H2O for MnCl2 × 4H2O (0.004 M), DMSO-EtOH (4/1, v/v)) for FeCl2 × 4H2O (0.014 M), H2O for CoCl2 × 6H2O (0.010 M), H2O for NiCl2 × 6H2O (0.010 M), H2O for CuCl2 × 2H2O (0.008 M), H2O for ZnCl2 (0.013 M), DMSO for 1 (0.017 M), DMSO for 2 (0.010 M0, DMSO for 3 (0.004 M), DMSO for 4 (0.002 M), DMSO for 5 (0.003 M), DMSO-EtOH-H2O (25/1/1, v/v)) for 6 (0.006 M), DMSO for 7 (0.002 M) and aliquots of these solutions were then added in solutions (2.5 mg BSA/mL) of saline.
The experiment on the inhibitory effect of each compound of interest against the washed rabbit platelets (WRPs) aggregation was carried out as per the already described method. The platelets were from male New Zealand white rabbits (about 20), individually housed in stainless steel cages in an air-conditioned room (19 ± 1 °C, 55 ± 5% humidity on a 12/12 h artificial light/dark cycle). Blood samples were drawn from the main ear artery. Microliters of PAF in a final concentration of about 10^–10 M were added to the cuvette of the aggregometer, and the height of the platelet aggregation was monitored. The platelet aggregation induced by PAF, or thrombin was measured before (considered as 0% inhibition) and after the addition of various concentrations of the examined sample, creating a linear curve of percentage inhibition (ranging from 0 to 100%) versus different concentrations of the sample. From this curve, the concentration of the sample that inhibited 50% PAF-induced aggregation was calculated, and this value was defined as IC50 (Inhibitory concentration for 50% Inhibition). Dithiothreitol-insensitive PAF choline phosphotransferase, lyso-PAF:acetyl-CoA acetyltransferase and PAF-acetylhydrolase activity assays were performed on the homogenates of rabbit leukocytes while the activity of lipoprotein-associated phospholipase A2 was assessed on plasma as previously described. The experiments were performed in a model 400 vs. aggregometer of Chrono-Log (Havertown, PA, USA) coupled to a Chrono-Log recorder at 37 °C with constant stirring at 1200 rpm. The separation of platelets was performed with centrifugations in a 3L-R Heraeus Labofuge (Hvanau, Germany), a 400R Heraeus Labofuge and an RC-5B Sorvall (Newtown, CT, USA) refrigerated super speed centrifuge. Bovine serum albumin (BSA), PAF and analytical solvents for the biological assays were purchased from Sigma. […] The measurements were performed in duplicates for each sample concentration in three different WRP preparations, in order to ensure reproducibility. All experiments were also followed by appropriate control tests of the solvent used (saline solution of BSA, DMSO aliquots in a saline solution of BSA-2.5 mg BSA/mL saline- or just in saline), in WRPs. In the aggregometer cuvette (250 to 500 μL) the overall amount of added DMSO, contained in the solution of the sample under study, is not higher than 2–3 μL. All results were expressed as mean ± standard deviation (SD). The t-test was employed to assess differences among the IC50 values of each metal complex against either the PAF- or thrombin-induced aggregation. Differences were statistically significant when the statistical p-value was smaller than 0.05.

Compound | IC50 [1] [µM] | IC50 [2] [µM] | cytotoxic effect in HeLa [1] | fold more potent against PAF as opposed to thrombin-induced aggregation ([2]; ratio of thrombin and PAF IC50) [fold]
CS(C)=O.[Cl][Cu][Cl].c1ccc(-c2cnc3ccccc3n2)nc1 [Complex 3, [Cu(pqx)Cl2(DMSO)]] | 27.2 ± 1.23 | 10.6 ± 1.4 | – | –
[Cl][Zn][Cl].c1ccc(-c2cnc3ccccc3n2)nc1 [Complex 4, [Zn(pqx)Cl2]] | 77.8 ± 6.51 | 3.3 ± 0.3 | – | –
[Co(pqx)Cl2(DMF)] [Complex 2] | 89.1 ± 7.77 | 4.1 ± 0.6 | only slightly affected | –
[Fe(pqx)Cl2]2 [Complex 6] | 70.9 ± 2.5 | 1.79 ± 0.12 | – | –
[Mn(pqx)(H2O)2Cl2]2 [Complex 5] | – | 39 ± 6 | practically non-cytotoxic | –
[Ni(pqx)Cl2]2 [Complex 7] | 82.3 ± 9.49 | 6.83 ± 0.42 | only slightly affected | –
mer-[Cr(pqx)Cl3(H2O)] [Complex 1] | 82.8 ± 3.12 | 4.5 ± 0.9 | only slightly affected | ~12
